Reference: PMC3713324, “Polyisoprenylated Methylated Protein Methyl Esterase Is Both Sensitive to Curcumin and Overexpressed in Colorectal Cancer: Implications for Chemoprevention and Treatment” (BioMed Research International, 2013)

Target: T1, polyisoprenylated methylated protein methyl esterase (PMPMEase) (Sus scrofa, UniProt Q29550)
T1 construct: purified PMPMEase
T1 sequence (Q29550 19-566): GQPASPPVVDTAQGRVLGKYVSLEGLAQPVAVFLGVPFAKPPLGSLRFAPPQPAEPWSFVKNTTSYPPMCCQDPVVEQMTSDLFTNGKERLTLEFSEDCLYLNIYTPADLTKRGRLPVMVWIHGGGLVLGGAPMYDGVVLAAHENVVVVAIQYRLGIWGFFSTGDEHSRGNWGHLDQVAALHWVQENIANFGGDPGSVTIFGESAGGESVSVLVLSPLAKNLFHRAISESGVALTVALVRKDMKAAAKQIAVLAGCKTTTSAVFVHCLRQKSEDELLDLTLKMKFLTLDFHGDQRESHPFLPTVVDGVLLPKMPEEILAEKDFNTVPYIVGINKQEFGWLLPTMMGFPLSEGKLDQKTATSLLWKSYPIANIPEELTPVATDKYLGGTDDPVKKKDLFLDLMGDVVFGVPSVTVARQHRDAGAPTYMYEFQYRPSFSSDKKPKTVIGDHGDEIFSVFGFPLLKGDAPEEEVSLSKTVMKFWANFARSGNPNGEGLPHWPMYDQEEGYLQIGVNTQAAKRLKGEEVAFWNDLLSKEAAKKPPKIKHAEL
Assay: RP-HPLC assay of RD-PNB hydrolysis by purified enzyme; Michaelis-Menten kinetics; reversibility by gel filtration
Format: biochemical

Ki: 310 nM
Structure (SMILES): COc1cc(/C=C/C(=O)CC(=O)/C=C/c2ccc(O)c(OC)c2)ccc1O [curcumin]
